In patent publication US10479789B2, “Pyrido[1,2-A]pyrimidone analog, crystal form thereof, intermediate thereof and preparation method therefor” (Chia Tai Tianqing Pharmaceutical Group Co., Ltd., priority 2015, dated 2019):

Test system: MCF-7 cells
Assay: In vitro test of cell activity, insulin-stimulated MCF-7 cells, ELISA-One
Type: cell-based
Conditions: Homo sapiens, MCF7, 2 hours compound, insulin 30 minutes
Experimental: 1) MCF-7 cells were inoculated at the density of 2.5×10^4 cells/well into 96-well plates (the culture medium used should be a complete culture medium containing 10% FBS).
2) On the next day, the medium in each well was drawn out.
3) Insulin was dissolved in a culture medium without serum, added to the cultured cells and incubated for 30 minutes, wherein the final concentration of insulin was 10 mg/mL.
4) A lysis solution was prepared according to the following method during the waiting period for the reaction: • a) Enhancer solution was removed from the refrigerator to melt in advance. • b) Enhancer solution was diluted 10-fold with the 5× Lysis Buffer to give a concentrated lysis solution. • c) The concentrated lysis solution was diluted 5-fold with double distilled water to give the lysis solution.
5) The medium in each well was completely removed and each well was quickly rinsed with PBS once.
6) 150 μL of the freshly prepared lysis solution was added to each well and shaken at room temperature for 10 min.
7) After confirming that all cells were detached, the lysis solution together with cell debris was transferred into a 1.5 mL tube. […]
9) The number of strips of ELISA-one micro-well plate that is required was calculated. […]
15) The corresponding ELISA-One filter group was assembled and used to read the fluorescence signal intensity.

- IC50: ≤ 50 nM
Structure (SMILES): COc1ncc(-c2ccc3ncc(OCCN(C)C)c(=O)n3c2)cc1NS(=O)(=O)c1ccc(F)cc1Cl [Compound 1]
